PMC6567099 (Journal of Enzyme Inhibition and Medicinal Chemistry, 2019)

Experiments:
[1] = biological target: APAO (N1-acetylpolyamine oxidase) (Homo sapiens, UniProt Q6QHF9); test: luminol/HRP chemiluminescence assay of H2O2 with purified recombinant enzyme; type: biochemical
SMO (spermine oxidase) = SMO (spermine oxidase) (Homo sapiens, UniProt Q9NWM0); test: as above; type: biochemical
Chain of SMO (spermine oxidase) (Q9NWM0 whole entry): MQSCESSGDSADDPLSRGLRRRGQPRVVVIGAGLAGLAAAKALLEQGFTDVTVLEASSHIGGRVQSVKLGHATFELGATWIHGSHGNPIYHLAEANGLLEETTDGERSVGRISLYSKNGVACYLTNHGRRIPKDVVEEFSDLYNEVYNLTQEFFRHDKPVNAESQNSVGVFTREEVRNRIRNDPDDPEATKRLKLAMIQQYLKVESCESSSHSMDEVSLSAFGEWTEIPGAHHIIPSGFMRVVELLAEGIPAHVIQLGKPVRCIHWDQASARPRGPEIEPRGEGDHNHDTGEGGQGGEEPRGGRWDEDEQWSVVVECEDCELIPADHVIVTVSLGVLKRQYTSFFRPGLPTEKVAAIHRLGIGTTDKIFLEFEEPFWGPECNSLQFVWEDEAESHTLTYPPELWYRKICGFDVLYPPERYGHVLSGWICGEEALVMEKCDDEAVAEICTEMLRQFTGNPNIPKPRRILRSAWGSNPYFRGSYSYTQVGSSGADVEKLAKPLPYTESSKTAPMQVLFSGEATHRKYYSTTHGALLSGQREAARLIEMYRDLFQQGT

Chain of APAO (N1-acetylpolyamine oxidase) (Q6QHF9 whole entry): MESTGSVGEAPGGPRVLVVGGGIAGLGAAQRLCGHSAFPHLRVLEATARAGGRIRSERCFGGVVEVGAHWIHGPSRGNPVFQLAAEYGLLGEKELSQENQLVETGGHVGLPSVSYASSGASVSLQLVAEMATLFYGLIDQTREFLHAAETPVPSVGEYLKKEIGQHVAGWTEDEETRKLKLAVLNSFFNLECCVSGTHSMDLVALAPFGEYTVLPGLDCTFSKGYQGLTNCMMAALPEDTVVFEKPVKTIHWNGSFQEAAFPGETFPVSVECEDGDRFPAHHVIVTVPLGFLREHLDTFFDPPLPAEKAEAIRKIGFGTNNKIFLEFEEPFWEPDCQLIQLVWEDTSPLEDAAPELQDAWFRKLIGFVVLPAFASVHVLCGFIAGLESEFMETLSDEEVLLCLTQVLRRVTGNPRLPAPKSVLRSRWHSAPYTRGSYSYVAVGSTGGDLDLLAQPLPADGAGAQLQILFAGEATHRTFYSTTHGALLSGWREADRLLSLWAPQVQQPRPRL

**Q.** Which IC50 [1] does the source give for `CN(C)CCCNCCCNC(=O)c1cccc2cccnc12` [SI-4650, N-(3-{[3-(dimethylamino)propyl]amino}propyl)-8-quinolinecarboxamide] here?
**A.** Its IC50 is 35.4 ± 0.26 µM.

**Q.** And the IC50 (SMO (spermine oxidase))?
**A.** The IC50 was 381.8 ± 0.17 µM.
